Assays:
PCSK9 protein = target: T1, PCSK9 protein (Homo sapiens, UniProt Q8NBP7); assay: Binding ability to PCSK9 protein (HTRF); settings: PCSK9-His, Alexa Fluor 647 probe compound
T1 construct: purchased Sino biology (Sino Biological) 29698-H08H
Procedure: 1. Experimental objective: To detect the action of compounds to bind PCSK9 protein by an HTRF method.
3. Experimental data processing method: Four-parameter log(inhibitor) vs. response—Variable slope (four parameters) in XLit was used to perform non-linear fitting of the compound concentration and the corresponding inhibition rate, and IC50 was calculated.

[1] = Pharmacokinetic determination in mice (PO 5 mg/kg, IV 1 mg/kg); type: in vivo, C57BL/6J mice; settings: male, C57BL/6J, mouse, plasma, C57 mice, PO administration, 5 mpk
Procedure: 1. Experimental objective: C57BL/6J mice were used as test animals to study the pharmacokinetic behavior of the compounds of the present disclosure in mice (plasma) after oral and intravenous administration.
2.2 Test animals: C57 mice, male, purchased from Shanghai Bk Lab Animal Co., Ltd., with animal production license number (SCXK (Shanghai) 2013-0006 N0.311620400001794).
2.3 Drug preparation: Preparation of oral drug: 10% Solutol HS15
10 g of Solutol HS15 solid was weighed, dissolved in 90 mL of pure water, uniformly mixed, stirred, and ultrasonically treated to form a clear solution. The compound of the present disclosure was weighed and dissolved in this solution, uniformly shaken, and ultrasonically treated for 15 minutes to obtain a colorless clear solution with a concentration of 0.5 mg/mL. Preparation of intravenous drug: 5% DMSO+10% Solutol HS15+85% PBS, the compound of the present disclosure was weighed, 5% DMSO was first added on the basis of the proportion relative to the total volume of administration, and the mixture was vortexed and ultrasonically treated for 2 min until it was completely dissolved; 10% of Solutol HS15 was then added, and the mixture was vortexed and ultrasonically treated for 2 min until it was completely dissolved; and finally, 85% of PBS was added, and the mixture was vortexed, ultrasonically treated for 5 min, and filtered through a 0.22 um filter membrane to obtain a colorless and transparent clear solution with a concentration of 0.2 mg/mL.
2.4 Administration: 3 male C57 mice were fasted overnight and then respectively administered PO at a dose of 5 mg/kg and a volume of 10 mL/kg. 3 male C57 mice were fasted overnight and then respectively administered IV at a dose of 1 mg/kg and a volume of 5 mL/kg.
2.5 Sample collection: Before and after administration of mice, 0.04 mL of blood was collected from the orbit at 0.083 (iv), 0.25, 0.5, 1, 2, 4, 8, and 24 hours, and placed in EDTA-K2 test tubes, which was centrifuged at 6000 rpm at 4° C. for 6 min to separate plasma which was stored at −80° C.; and the […] were fed 4 h after administration.
2.6 Determination results: The final determination results were obtained by using an LCMS/MS method.
3. Experimental results: The main pharmacokinetic parameters were calculated using WinNonlin 6.1.

T1 sequence (Q8NBP7 153-692): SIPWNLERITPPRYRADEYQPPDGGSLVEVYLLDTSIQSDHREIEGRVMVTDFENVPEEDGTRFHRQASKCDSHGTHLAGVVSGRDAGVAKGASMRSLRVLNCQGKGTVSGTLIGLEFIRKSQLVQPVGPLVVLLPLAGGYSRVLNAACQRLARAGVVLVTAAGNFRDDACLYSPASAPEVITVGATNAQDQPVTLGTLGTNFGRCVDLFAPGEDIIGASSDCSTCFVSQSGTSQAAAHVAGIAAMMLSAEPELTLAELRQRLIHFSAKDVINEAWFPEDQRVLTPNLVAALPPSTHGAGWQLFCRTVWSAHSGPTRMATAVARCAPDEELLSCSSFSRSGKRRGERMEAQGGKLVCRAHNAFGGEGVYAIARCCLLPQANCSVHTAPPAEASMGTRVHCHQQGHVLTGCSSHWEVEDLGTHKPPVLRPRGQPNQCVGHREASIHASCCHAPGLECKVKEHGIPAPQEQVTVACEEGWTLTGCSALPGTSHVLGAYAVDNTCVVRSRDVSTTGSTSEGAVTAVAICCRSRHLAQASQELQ

Row | SMILES | IC50 (PCSK9 protein) | other results
1 | O=c1ccncn1-c1ccc(N[C@H]2CC[C@H](Nc3nc4cc(F)ccn4n3)C2)nc1 [Example 28, 3-(6-(((1S,3S)-3-((7-fluoro-[1,2,4]triazolo[1,5-a]pyridin-2-yl)amino)cyclopentyl)amino)pyridin-3-yl)pyrimidin-4(3H)-one] | 17.4 nM | 
2 | O=c1cnccn1-c1ccc(N[C@H]2CC[C@H](Nc3nc4cc(F)ccn4n3)C2)nc1 [Example 29, 1-(6-(((1S,3S)-3-((7-fluoro-[1,2,4]triazolo[1,5-a]pyridin-2-yl)amino)cyclopentyl)amino)pyridin-3-yl)pyrazin-2(1H)-one] | 18.4 nM | 
3 | O=C1COCCN1c1ccc(N[C@H]2CC[C@H](Nc3nc4cc(F)ccn4n3)C2)nc1 [Example 53, 4-(6-(((1S,3S)-3-((7-fluoro-[1,2,4]triazolo[1,5-a]pyridin-2-yl)amino)cyclopentyl)amino)pyridin-3-yl)morpholin-3-one] | 43.6 nM | 
4 | O=C1c2ncc(F)cc2CN1c1ccc(N[C@H]2CC[C@H](Nc3nc4cc(OC(F)F)ccn4n3)C2)nc1 [Example 98] | 6.6 nM | 
5 | O=c1nc(O)ccn1-c1ccc(N[C@H]2CC[C@H](Nc3nc4cc(F)ccn4n3)C2)nc1 [Example 102] | 13.3 nM | 
6 | O=c1nc(O)ccn1-c1ccc(N[C@H]2CC[C@H](Nc3nc4cc(C(F)F)ccn4n3)C2)nc1 [Example 104] | 13.9 nM | 
7 | O=c1nc(O)ccn1-c1ccc(N[C@H]2CC[C@H](Nc3nc4cc(OC(F)F)ccn4n3)C2)nc1 [Example 105] | 9.1 nM | 
8 | Cc1ccn2nc(N[C@H]3CC[C@H](Nc4ccc(-n5ccc(O)nc5=O)cn4)C3)nc2c1 [Example 106] | 10.6 nM | 
9 | O=c1nc(O)ccn1-c1ccc(N[C@H]2CC[C@H](Nc3nc4cc(C5CC5)ccn4n3)C2)nc1 [Example 107] | 21.3 nM | 
10 | O=c1nc(O)c(C(F)(F)F)cn1-c1ccc(N[C@H]2CC[C@H](Nc3nc4cc(C(F)(F)F)ccn4n3)C2)nc1 [Example 119] | 23 nM | 
11 | Cc1cnc2c(c1)C(=O)N(c1ccc(N[C@H]3CC[C@H](Nc4nc5cc(OC(F)F)ccn5n4)C3)nc1)C2 [Example 128] | 8.5 nM | 
12 | Cc1ccc2c(n1)CN(c1ccc(N[C@H]3CC[C@H](Nc4nc5cc(OC(F)F)ccn5n4)C3)nc1)C2=O [Example 131] | 6.7 nM | AUC(0-inf) ([1]; read-out: Area under the curve AUC0-∞): 22400 ng·h/mL; half-life ([1]; read-out: Half-life t1/2 (converted)): 204 min; MRT ([1]; read-out: Mean residence time MRT): 2.7 h; Cmax ([1]; read-out: Plasma concentration Cmax): 7170 ng/mL; Tmax ([1]; read-out: Time to peak tmax): 30 min
13 | O=C1c2c(F)ccnc2CN1c1ccc(N[C@H]2CC[C@H](Nc3nc4cc(OC(F)F)ccn4n3)C2)nc1 [Example 135] | 5.4 nM | 
14 | N#Cc1cnc2c(c1)C(=O)N(c1ccc(N[C@H]3CC[C@H](Nc4nc5cc(F)ccn5n4)C3)nc1)C2 [Example 137] | 15.9 nM | 
15 | O=C1c2ccc(O)nc2CN1c1ccc(N[C@H]2CC[C@H](Nc3nc4cc(OC(F)F)ccn4n3)C2)nc1 [Example 138] | 8.8 nM | 
16 | O=C1c2nc(O)ccc2CN1c1ccc(N[C@H]2CC[C@H](Nc3nc4cc(C(F)(F)F)ccn4n3)C2)nc1 [Example 139] | 36.3 nM | 
17 | Cc1cc(N[C@H]2CC[C@H](Nc3nc4cc(C(F)(F)F)ccn4n3)C2)ncc1N1Cc2nc(O)ccc2C1=O [Example 144] | 15.6 nM | 
18 | O=C1c2cccnc2CN1c1cnc(N[C@H]2CC[C@H](Nc3nc4cc(OC(F)F)ccn4n3)C2)c(F)c1 [Example 152] | 6.7 nM | 

Row | SMILES | IC50 (PCSK9 protein) | other results
19 | O=C1c2cc(F)cnc2CN1c1cnc(N[C@H]2CC[C@H](Nc3nc4cc(OC(F)F)ccn4n3)C2)c(F)c1 [Example 158] | 16 nM | 
20 | Cc1cc2c(cn1)CN(c1cnc(N[C@H]3CC[C@H](Nc4nc5cc(OC(F)F)ccn5n4)C3)c(F)c1)C2=O [Example 160] | 7.7 nM | 
21 | O=C1c2ncccc2CN1c1cnc(N[C@H]2CC[C@H](Nc3nc4cc(C5CC5)ccn4n3)C2)c(F)c1 [Example 166] | 7.9 nM | 
22 | CC(C)(O)c1ccn2nc(N[C@H]3CC[C@H](Nc4ncc(N5Cc6cccnc6C5=O)cc4F)C3)nc2c1 [Example 168] | 10.6 nM | 
23 | COc1cc(N2Cc3cccnc3C2=O)cnc1N[C@H]1CC[C@H](Nc2nc3cc(C(F)(F)F)ccn3n2)C1 [Example 170] | 13.3 nM | 
24 | Cc1nc(N[C@H]2CC[C@H](Nc3nc4cc(C(F)(F)F)ccn4n3)C2)ccc1N1Cc2cccnc2C1=O [Example 176] | 9.08 nM | 
25 | CC(C)(O)c1cccn(-c2cnc(N[C@H]3CC[C@H](Nc4nc5cc(C(F)(F)F)ccn5n4)C3)c(F)c2)c1=O [Example 182] | 29.3 nM | 
26 | Cc1cc2c(cn1)CN(c1cnc(N[C@H]3CC[C@H](Nc4nc5cc(F)ccn5n4)C3)c(F)c1)C2=O [Example 190] | 8.5 nM | 
27 | O=c1[nH]cc(-c2cnc(N[C@H]3CC[C@H](Nc4nc5cc(C(F)(F)F)ccn5n4)C3)c(F)c2)c(=O)[nH]1 [Example 195] | 9.6 nM | 
28 | CC(C)(O)c1cnc2c(c1)CN(c1cnc(N[C@H]3CC[C@H](Nc4nc5cc(F)ccn5n4)C3)c(F)c1)C2=O [Example 196] | 8.7 nM | 
29 | CC(C)(O)c1ccnc2c1CN(c1cnc(N[C@H]3CC[C@H](Nc4nc5cc(F)ccn5n4)C3)c(F)c1)C2=O [Example 197] | 7.5 nM | 
30 | O=C1c2nccn2CCN1c1cnc(N[C@H]2CC[C@H](Nc3nc4cc(C(F)(F)F)ccn4n3)C2)c(F)c1 [Example 213] | 9.5 nM | 
31 | Cc1ccn2nc(N[C@H]3CC[C@H](Nc4ncc(N5Cc6ncccc6C5=O)cc4F)C3)nc2c1 [Example 223] | 7.2 nM | 
32 | Cc1ccn2nc(N[C@H]3CC[C@H](Nc4ncc(-n5ccccc5=O)cc4F)C3)nc2c1 [Example 224] | 8.5 nM | 
33 | Cc1ccn2nc(N[C@H]3CC[C@H](Nc4ncc(-n5ccc(O)nc5=O)cc4F)C3)nc2c1 [Example 225] | 8.6 nM | 
34 | Cc1ccn2nc(N[C@H]3CC[C@H](Nc4ncc(N5CCn6nccc6C5=O)cc4F)C3)nc2c1 [Example 226] | 7.1 nM | 
35 | Cc1nc(N[C@H]2CC[C@H](Nc3nc4cc(C(F)(F)F)ccn4n3)C2)c(F)cc1N1CCn2nccc2C1=O [Example 238] | 8 nM | 
